The results in this text go back to article PMC10129394, “PK1 from Drosophila obscurin is an inactive pseudokinase with scaffolding properties” (Open Biology, 2023).

The target in assay [1] is T1, dmObsc-PK1 (Drosophila melanogaster, UniProt A8DYP0).
T1 construct: gene Obsc; pseudokinase domain PK1 plus 40 C-terminal residues (3186-3480); N-terminal His6-3C tag (pOPINF), cleaved with 3C protease; E. coli Rosetta
In words: X-ray crystallography, […] Å. The conditions noted are these: co-crystallized with 3 mM ATP and 1 mM MgCl2, ADP found in density; no cation observed; pH 9.5; ATP-binding pocket.

In assay [2] the target is T1, dmObsc-PK1. Description: isothermal titration calorimetry. It counts as binding. (ITC needs no label: the signal is the heat of the interaction.)

T1 sequence (A8DYP0 3186-3480): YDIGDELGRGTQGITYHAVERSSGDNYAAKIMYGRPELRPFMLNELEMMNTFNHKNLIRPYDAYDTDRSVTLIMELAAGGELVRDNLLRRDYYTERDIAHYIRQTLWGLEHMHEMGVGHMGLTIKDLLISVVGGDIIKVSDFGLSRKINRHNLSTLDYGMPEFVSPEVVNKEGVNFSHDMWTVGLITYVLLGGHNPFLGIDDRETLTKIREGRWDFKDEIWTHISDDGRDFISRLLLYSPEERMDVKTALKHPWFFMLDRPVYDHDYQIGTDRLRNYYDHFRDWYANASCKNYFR

With `Nc1ncnc2c1ncn2[C@@H]1O[C@H](COP(=O)(O)OP(=O)(O)O)[C@@H](O)[C@H]1O` [ADP], the “X-ray crystallography, 1.90 Å” value on dmObsc-PK1 [1] is “electron density maps revealed ADP bound to the kinase”.
As usually defined, the Kd is the constant that tells how readily two partners part at equilibrium. With `Nc1ncnc2c1ncn2[C@@H]1O[C@H](COP(=O)(O)OP(=O)(O)OP(=O)(O)O)[C@@H](O)[C@H]1O` [ATP], the Kd at dmObsc-PK1 [2] was 61.8 ± 4.2 µM.
